Some results are limits rather than exact numbers.

The values that follow come from US11554171B2, “Compounds and methods for the targeted degradation of bromodomain-containing proteins” (Arvinas Operations, Inc., priority 2015, dated 2023).

The assay has as its system c-myc in 22RV-1 cells. Briefly: Human c-myc ELISA assay. It counts as cell-based. The note with it: Homo sapiens; for Emax: 22Rv1, 18 h, read-out: Degradation of BRD4: Maximum inhibition (%) c-Myc ELISA in 22RV1 cells; for DC50: 22Rv1, read-out: Degradation of BRD4: DC50 (uM) c-Myc ELISA in 22RV1 cells. Put shortly: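 22RV-1 cells treated 18 h with 8-point 1:3 compound dilutions (final top 300 nM or 1 μM, 0.1% DMSO). Cells lysed in RIPA buffer with protease/phosphatase inhibitors, and c-myc protein in cleared lysate quantified by ELISA against a standard curve. DC50 reported for c-myc suppression.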

As for `Cc1ncsc1-c1ccc(CNC(=O)[C@@H]2C[C@@H](O)CN2C(=O)[C@@H](C(C)C)n2cc(-c3ccnc(O[C@H]4C[C@H](NC(=O)C[C@@H]5N=C(c6ccc(Cl)cc6)c6c(sc(C)c6C)-n6c(C)nnc65)C4)c3)cn2)cc1` [Example 225, (2S,4R)-4-hydroxy-N-{[4-(4-methyl-1,3-thiazol-5-yl)phenyl]methyl}-1-[(2R)-3-methyl-2-(4-{2-[(1,3trans)-3-{2-[(9 S)-7-(4-chlorophenyl)-4,5,13-trimethyl-3-thia-1,8,11, 12-tetraazatricyclo[8.3.0.0^2,^6]trideca-2(6),4,7,10,12-pentaen-9-yl]acetamido}cyclobutoxy]pyridin-4-yl}-1H-pyrazol-1-yl)butanoyl]pyrrolidine-2-carboxamide], the Emax came out at 50.4% and the DC50 is > 1 µM.

For the compound `Cc1ncsc1-c1ccc([C@H](C)NC(=O)[C@@H]2C[C@@H](O)CN2C(=O)[C@@H](NC(=O)c2cc3cc(O[C@H]4C[C@H](NC(=O)C[C@@H]5N=C(c6ccc(Cl)cc6)c6c(sc(C)c6C)-n6c(C)nnc65)C4)ccc3o2)C(C)(C)C)cc1` [Example 207, (2S,4R)-1-[(2S)-3,3-dimethyl-2-({5-[(1,3trans)-3-{2-[(9S)-7-(4-chlorophenyl)-4,5,13-trimethyl-3-thia-1,8,11,12-tetraazatricyclo[8.3.0.0^2,^6]trideca-2(6),4,7,10,12-pentaen-9-yl]acetamido}cyclobutoxy]-1-benzofuran-2-yl}formamido)butanoyl]-4-hydroxy-N-[(1S)-1-[4-(4-methyl-1,3-thiazol-5-yl)phenyl]ethyl]pyrrolidine-2-carboxamide], the Emax worked out at 89.5% and the half-maximal degradation concentration (DC50) was < 0.01 µM.

For the compound `Cc1ncsc1-c1ccc(CNC(=O)C2C[C@@H](O)CN2C(=O)[C@@H](NC(=O)COc2ccccc2OCCCNC(=O)C[C@@H]2N=C(c3ccc(Cl)cc3)c3c(sc(C)c3C)-n3c(C)nnc32)C(C)(C)C)cc1` (stereo partly drawn) [Example 107], the Emax amounted to 86.6% and the DC50 fell in the range of 0.01 to 0.1 µM.

On to `Cc1ncsc1-c1ccc([C@H](C)NC(=O)[C@@H]2C[C@@H](O)CN2C(=O)[C@H](C(C)C)n2cc(-c3ccnc(O[C@H]4C[C@@H](NC(=O)C[C@@H]5N=C(c6ccc(Cl)cc6)c6c(sc(C)c6C)-n6c(C)nnc65)C4)c3)cn2)cc1` [Example 219, (2S,4R)-4-hydroxy-N-[(1S)-1-[4-(4-methyl-1,3-thiazol-5-yl)phenyl]ethyl]-1-[(2S)-3-methyl-2-(4-{2-[(1,3-cis)-3-{2-[(9S)-7-(4-chlorophenyl)-4,5,13-trimethyl-3-thia-1,8,11,12-tetraazatricyclo[8.3.0.0^2,^6]trideca-2(6),4,7,10,12-pentaen-9-yl]acetamido}cyclobutoxy]pyridin-4-yl}-1H-pyrazol-1-yl)butanoyl]pyrrolidine-2-carboxamide], for which the Emax amounted to 95.5% and the DC50 was < 0.01 µM.

As to `Cc1ncsc1-c1ccc([C@H](C)NC(=O)[C@@H]2C[C@@H](O)CN2C(=O)[C@@H](NC(=O)CN2CCC(O[C@H]3C[C@H](NC(=O)C[C@@H]4N=C(c5ccc(Cl)cc5)c5c(sc(C)c5C)-n5c(C)nnc54)C3)CC2)C(C)(C)C)cc1` [Example 306, (2S,4R)-1-[(2S)-3,3-dimethyl-2-(2-{4-[(1,3-trans)-3-{2-[(9S)-7-(4-chlorophenyl)-4,5,13-trimethyl-3-thia-1,8,11,12-tetraazatricyclo[8.3.0.0^2,^6]trideca-2(6),4,7,10,12-pentaen-9-yl]acetamido}cyclobutoxy]piperidin-1-yl}acetamido)butanoyl]-4-hydroxy-N-[(1S)-1-[4-(4-methyl-1,3-thiazol-5-yl)phenyl]ethyl]pyrrolidine-2-carboxamide], the Emax was found to be 100% and the DC50 was < 0.01 µM.

As for `Cc1ncsc1-c1ccc(CNC(=O)[C@@H]2C[C@@H](O)CN2C(=O)[C@@H](NC(=O)COCCCOc2ccc(-c3cnc(NC(=O)C[C@@H]4N=C(c5ccc(Cl)cc5)c5c(sc(C)c5C)-n5c(C)nnc54)cn3)cc2F)C(C)(C)C)cc1` [Example 22], the Emax is 94% and the DC50 lay in the range of 0.01 to 0.1 µM.

Take `Cc1ncsc1-c1ccc([C@H](C)NC(=O)[C@@H]2C[C@@H](O)CN2C(=O)[C@@H](NC(=O)COc2ccc(O[C@H]3C[C@@H](NC(=O)C[C@@H]4N=C(c5ccc(Cl)cc5)c5c(sc(C)c5C)-n5c(C)nnc54)C3)nc2)C(C)(C)C)cc1` [Example 119, (2S,4R)-1-[(2S)-3,3-dimethyl-2-[2-({6-[(1,3-cis)-3-{2-[(9S)-7-(4-chlorophenyl)-4,5,13-trimethyl-3-thia-1,8,11,12-tetraazatricyclo[8.3.0.0^2,^6]trideca-2(6),4,7,10,12-pentaen-9-yl]acetamido}cyclobutoxy]pyridin-3-yl}oxy)acetamido]butanoyl]-4-hydroxy-N-[(1S)-1-[4-(4-methyl-1,3-thiazol-5-yl)phenyl]ethyl]pyrrolidine-2-carboxamide]: the Emax was found to be 96% and the DC50 was < 0.01 µM.

With `Cc1ncsc1-c1ccc([C@H](C)NC(=O)[C@@H]2C[C@@H](O)CN2C(=O)[C@@H](n2cc(-c3ccnc(O[C@H]4C[C@@H](NC(=O)C[C@@H]5N=C(c6ccc(Cl)cc6)c6c(sc(C)c6C)-n6c(C)nnc65)C4)c3)cn2)C(C)(C)C)cc1` [Example 240], the Emax turned out to be 97% and the 50% degradation concentration (DC50) was < 0.01 µM.

With `Cc1ncsc1-c1ccc([C@H](C)NC(=O)[C@@H]2C[C@@H](O)CN2C(=O)[C@H](C(C)C)n2cc(-c3ccnc(N4CCN(C(=O)C[C@@H]5N=C(c6ccc(Cl)cc6)c6c(sc(C)c6C)-n6c(C)nnc65)CC4)c3)cn2)cc1` [Example 322], the Emax worked out at 92.6% and the DC50 is < 0.01 µM.

For `Cc1ncsc1-c1ccc([C@H](C)NC(=O)[C@@H]2C[C@@H](O)CN2C(=O)[C@@H](NC(=O)COCCCN2CCN(C(=O)C[C@@H]3N=C(c4ccc(Cl)cc4)c4c(sc(C)c4C)-n4c(C)nnc43)CC2)C(C)(C)C)cc1` [Example 313], the Emax is 87.5% and the DC50 was 0.01 to 0.1 µM.

For the compound `Cc1ncsc1-c1ccc([C@H](C)NC(=O)[C@H]2C[C@H](O)CN2C(=O)[C@@H](NC(=O)c2cc3cc(O[C@H]4C[C@@H](NC(=O)C[C@@H]5N=C(c6ccc(Cl)cc6)c6c(sc(C)c6C)-n6c(C)nnc65)C4)ccc3o2)C(C)(C)C)cc1` [Example 332], the Emax turned out to be 61% and the DC50 fell in the range of 0.1 to 1 µM.

In the case of `Cc1ncsc1-c1ccc([C@H](C)NC(=O)[C@@H]2C[C@@H](O)CN2C(=O)[C@@H](NC(=O)Cc2ccc(O[C@H]3C[C@@H](NC(=O)C[C@@H]4N=C(c5ccc(Cl)cc5)c5c(sc(C)c5C)-n5c(C)nnc54)C3)nc2)C(C)(C)C)cc1` [Example 270, (2S,4R)-1-[(2S)-3,3-dimethyl-2-(2-{6-[(1,3cis)-3-{2-[(9S)-7-(4-chlorophenyl)-4,5,13-trimethyl-3-thia-1,8,11,12-tetraazatricyclo[8.3.0.0^2,^6]trideca-2(6),4,7,10,12-pentaen-9-yl]acetamido}cyclobutoxy]pyridin-3-yl}acetamido)butanoyl]-4-hydroxy-N-[(1S)-1-[4-(4-methyl-1,3-thiazol-5-yl)phenyl]ethyl]pyrrolidine-2-carboxamide], the Emax came to 92.2% and the 50% degradation concentration (DC50) was < 0.01 µM.

As for `Cc1ncsc1-c1ccc([C@H](C)NC(=O)[C@@H]2C[C@@H](O)CN2C(=O)[C@@H](C(C)C)n2cc(-c3cccc(O[C@H]4C[C@H](NC(=O)C[C@@H]5N=C(c6ccc(Cl)cc6)c6c(sc(C)c6C)-n6c(C)nnc65)C4)c3)cn2)cc1` [Example 244], the Emax was 95.5% and the DC50 was in the range of 0.01 to 0.1 µM.

With `Cc1ncsc1-c1ccc([C@H](C)NC(=O)[C@@H]2C[C@@H](O)CN2C(=O)C(C(C)C)n2cc(-c3cc(F)cc(O[C@H](C)CNC(=O)C[C@@H]4N=C(c5ccc(Cl)cc5)c5c(sc(C)c5C)-n5c(C)nnc54)c3)cn2)cc1` (stereo partly drawn) [Example 213], the Emax stood at 94.3% and the DC50 was in the range of 0.01 to 0.1 µM.

Take `Cc1ncsc1-c1ccc(CNC(=O)[C@@H]2C[C@@H](O)CN2C(=O)[C@@H](NC(=O)COCCCOCCCOc2ccc(NC(=O)C[C@@H]3N=C(c4ccc(Br)cc4)c4c(sc(C)c4C)-n4c(C)nnc43)cc2)C(C)(C)C)cc1` [Example 62]: the Emax was 98.5% and the half-maximal degradation concentration (DC50) fell in the range of 0.01 to 0.1 µM.

`Cc1ncsc1-c1ccc([C@H](C)NC(=O)[C@@H]2C[C@@H](O)CN2C(=O)[C@@H](NC(=O)COCCC(=O)N2CCN(c3ccc([C@H](C)NC(=O)C[C@@H]4N=C(c5ccc(Cl)cc5)c5c(sc(C)c5C)-n5c(C)nnc54)cc3)CC2)C(C)(C)C)cc1` [Example 48, (2S,4R)-1-[(2S)-2-{2-[3-(4-{4-[(1S)-1-{2-[(9S)-7-(4-chlorophenyl)-4,5,13-trimethyl-3-thia-1,8,11,12-tetraazatricyclo[8.3.0.0^2,^6]trideca-2(6),4,7,10,12-pentaen-9-yl]acetamido}ethyl]phenyl}piperazin-1-yl)-3-oxopropoxy]acetamido}-3,3-dimethylbutanoyl]-4-hydroxy-N-[(1S)-1-[4-(4-methyl-1,3-thiazol-5-yl)phenyl]ethyl]pyrrolidine-2-carboxamide]: the Emax turned out to be 98% and the DC50 lay within 0.01 to 0.1 µM.

Regarding `Cc1ncsc1-c1ccc([C@H](C)NC(=O)[C@@H]2C[C@@H](O)CN2C(=O)[C@@H](NC(=O)CN2CCC(C(=O)N3CCN(C(=O)C[C@@H]4N=C(c5ccc(Cl)cc5)c5c(sc(C)c5C)-n5c(C)nnc54)CC3)CC2)C(C)(C)C)cc1` [Example 334], the Emax was 97% and the 50% degradation concentration (DC50) was < 0.01 µM.

In the case of `Cc1ncsc1-c1ccc(CNC(=O)[C@@H]2C[C@@H](O)CC2C(=O)[C@@H](NC(=O)CO[C@H]2CCN(c3ccc([C@@H](C)NC(=O)C[C@@H]4N=C(c5ccc(Cl)cc5)c5c(sc(C)c5C)-n5c(C)nnc54)cc3)C2)C(C)(C)C)cc1` (stereo partly drawn) [Example 66], the Emax was determined as 89.4% and the DC50 lay in the range of 0.01 to 0.1 µM.
